The results in this text go back to ChEMBL document CHEMBL4002647, “BMS-933043, a Selective α7 nAChR Partial Agonist for the Treatment of Cognitive Deficits Associated with Schizophrenia” (ACS Med Chem Lett, 2017).

The EC50 is the concentration that produces a half-maximal response. As usually defined, the IC50 is the concentration that gives 50% inhibition. What is called fraction unbound is free concentration divided by total concentration. The term Ki denotes the equilibrium dissociation constant of an inhibitor or competing ligand from its target.

Data set [1] is described as follows: Drug level treated with (2R)-N-(6-(1H-Imidazol-1-yl)-4-pyrimidinyl)-4'H-spiro[4-azabicyclo[2.2.2]octane-2,5'-[1,3]oxazol]-2'-amine.
The target of data set [2] is Neuronal acetylcholine receptor subunit alpha-7 (Rattus norvegicus, UniProt Q05941). In words: Agonist activity at rat alpha7 nAChR expressed in HEK293 cells assessed as increase in Ca2+ flux by Fluo-4 AM dye based FLIPR assay. It counts as cell-based. On the technique in general: Calcium assays in cells follow changes in intracellular calcium, usually with a dye or a luminescent sensor.
Chain of Neuronal acetylcholine receptor subunit alpha-7 (Rattus norvegicus, UniProt Q05941) (Q05941 whole entry): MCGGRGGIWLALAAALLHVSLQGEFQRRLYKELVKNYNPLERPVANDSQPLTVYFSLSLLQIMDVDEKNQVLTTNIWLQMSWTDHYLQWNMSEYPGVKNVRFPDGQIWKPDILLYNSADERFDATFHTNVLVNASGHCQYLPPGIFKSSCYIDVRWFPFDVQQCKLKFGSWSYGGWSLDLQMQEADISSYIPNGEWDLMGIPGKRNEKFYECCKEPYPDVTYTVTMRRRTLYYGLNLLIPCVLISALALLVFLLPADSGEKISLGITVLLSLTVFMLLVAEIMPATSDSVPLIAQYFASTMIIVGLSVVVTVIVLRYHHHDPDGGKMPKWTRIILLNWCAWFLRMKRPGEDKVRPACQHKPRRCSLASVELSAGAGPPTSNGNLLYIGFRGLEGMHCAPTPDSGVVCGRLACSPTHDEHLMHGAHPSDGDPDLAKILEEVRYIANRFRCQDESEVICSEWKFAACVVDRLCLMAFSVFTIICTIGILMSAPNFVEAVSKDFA

A short description of data set [3]: Metabolic stability in human liver microsomes assessed as compound remaining at 3 uM after 10 mins by LC-MS/MS analysis. It counts as ADME, microsome. The note with it: read-out: Stability.
The next data set deals with CYP2C8 (Homo sapiens, UniProt P10632). In words: Inhibition of recombinant human CYP2C8 using fluorogenic substrate preincubated for 30 mins and measured after 20 to 60 mins in presence of NADPH regenerating system by fluorescence assay. It counts as ADME. The note with it: human, recombinant CYP2C8, probe fluorogenic substrate (not named).
Chain of CYP2C8 (P10632 whole entry): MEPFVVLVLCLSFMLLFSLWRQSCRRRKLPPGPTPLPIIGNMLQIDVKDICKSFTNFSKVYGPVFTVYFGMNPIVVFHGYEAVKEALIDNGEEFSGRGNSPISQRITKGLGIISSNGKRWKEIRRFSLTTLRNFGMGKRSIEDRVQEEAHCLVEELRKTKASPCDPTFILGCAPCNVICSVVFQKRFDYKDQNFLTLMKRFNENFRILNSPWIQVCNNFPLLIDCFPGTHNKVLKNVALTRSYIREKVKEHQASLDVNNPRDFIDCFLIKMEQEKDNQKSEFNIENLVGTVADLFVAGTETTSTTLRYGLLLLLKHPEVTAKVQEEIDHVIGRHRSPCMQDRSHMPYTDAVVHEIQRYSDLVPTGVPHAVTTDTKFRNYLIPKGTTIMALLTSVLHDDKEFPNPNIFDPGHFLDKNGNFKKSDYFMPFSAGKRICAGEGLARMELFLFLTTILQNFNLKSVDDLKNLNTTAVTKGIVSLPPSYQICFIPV
Data set [4] is filed under the species Canis familiaris. As to the kind of experiment: […] in dog assessed as increase in alkaline phosphatase level. It counts as toxicity, Canis lupus familiaris. The note with it: in vivo.
The nature of data set [5]: Metabolic stability in monkey liver microsomes assessed as compound remaining at 3 uM after 10 mins by LC-MS/MS analysis. It counts as ADME, Macaca mulatta, microsome. The note with it: rhesus monkey, read-out: Stability.
In data set [6] the target is T1, CYP3A4 (Homo sapiens, UniProt P08684). In words: Inhibition of recombinant human CYP3A4 using fluorogenic substrate BFC preincubated for 30 mins and measured after 20 to 60 mins in presence of NADPH regenerating system by fluorescence assay. It counts as ADME. The note with it: human, recombinant CYP3A4, probe BFC.
T1 sequence (P08684 whole entry): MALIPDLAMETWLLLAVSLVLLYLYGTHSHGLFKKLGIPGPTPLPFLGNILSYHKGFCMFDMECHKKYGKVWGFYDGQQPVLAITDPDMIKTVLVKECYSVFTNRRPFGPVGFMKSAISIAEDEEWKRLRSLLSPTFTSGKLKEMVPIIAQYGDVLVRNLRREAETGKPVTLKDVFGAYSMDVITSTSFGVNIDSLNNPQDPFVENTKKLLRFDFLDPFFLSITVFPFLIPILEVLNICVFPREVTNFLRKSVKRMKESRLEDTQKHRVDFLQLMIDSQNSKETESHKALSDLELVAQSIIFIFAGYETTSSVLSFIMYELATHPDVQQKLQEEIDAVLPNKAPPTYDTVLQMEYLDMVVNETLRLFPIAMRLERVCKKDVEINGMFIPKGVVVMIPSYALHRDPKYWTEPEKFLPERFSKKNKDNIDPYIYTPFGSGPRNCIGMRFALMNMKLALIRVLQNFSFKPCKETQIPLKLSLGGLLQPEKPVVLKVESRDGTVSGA
A short description of data set [7]: Fraction unbound in human plasma at 10 uM after 4 hrs by equilibrium dialysis method. It counts as ADME, cell-free. For orientation: In equilibrium dialysis only unbound substance equilibrates across the membrane.
The species named for data set [8] is Canis familiaris. As to the kind of experiment: […] in dog assessed as increase in ALT level. It counts as toxicity, Canis lupus familiaris. The note with it: in vivo.
Data set [9] in a line: Metabolic stability in mouse liver microsomes assessed as compound remaining at 3 uM after 10 mins by LC-MS/MS analysis. It counts as ADME, microsome. The note with it: read-out: Stability. Background: Microsomes from liver hold many membrane-bound enzymes, among them those of drug oxidation.
The target in data set [10] is Nicotinic acetylcholine receptor alpha-1/beta-1/delta/epsilon (Rattus norvegicus) (UniProt P25109+P25108+P25110+P09660). As to the kind of experiment: Antagonist activity at rat alpha1beta1delta1epsilon nAChR expressed in HEK293 cells assessed as inhibition of acetylcholine-induced increase in Ca2+ flux by Fluo-4 AM dye based FLIPR assay. It counts as cell-based.
Data set [11] is filed under the species Canis familiaris. As to the kind of experiment: Hepatotoxicity in dog assessed as increase in AST level. The note with it: in vivo. It counts as toxicity, Canis lupus familiaris.
The target of data set [12] is T1, CYP3A4. In words: Inhibition of recombinant human CYP3A4 using fluorogenic substrate BZR preincubated for 30 mins and measured after 20 to 60 mins in presence of NADPH regenerating system by fluorescence assay. The note with it: human, recombinant CYP3A4, probe BZR. It counts as ADME.
The target in data set [13] is T2, Neuronal acetylcholine receptor subunit alpha-7 (Homo sapiens, UniProt P36544). As to the kind of experiment: Displacement of [125I]alpha-bungarotoxin from human alpha7 nAChR expressed in HEK293 cell membranes incubated for 2 hrs and measured by gamma counting method.
T2 sequence (P36544 whole entry): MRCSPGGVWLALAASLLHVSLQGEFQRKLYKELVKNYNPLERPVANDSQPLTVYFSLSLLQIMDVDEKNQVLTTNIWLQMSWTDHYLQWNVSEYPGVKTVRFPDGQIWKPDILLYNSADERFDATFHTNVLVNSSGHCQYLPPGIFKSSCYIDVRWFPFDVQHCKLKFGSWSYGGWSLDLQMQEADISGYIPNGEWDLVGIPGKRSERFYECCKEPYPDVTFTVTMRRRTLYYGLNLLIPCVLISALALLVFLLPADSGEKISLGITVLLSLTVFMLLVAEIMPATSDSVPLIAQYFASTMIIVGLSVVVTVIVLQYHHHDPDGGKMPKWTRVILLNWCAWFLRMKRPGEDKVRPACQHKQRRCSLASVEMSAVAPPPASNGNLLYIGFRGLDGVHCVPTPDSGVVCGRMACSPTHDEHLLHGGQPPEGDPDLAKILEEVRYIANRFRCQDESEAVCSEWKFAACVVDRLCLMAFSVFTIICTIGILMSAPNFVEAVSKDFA
For data set [14], the species on record is Canis familiaris. As to the kind of experiment: Hepatotoxicity in dog assessed as increase in alkaline phosphatase level. It counts as toxicity, Canis lupus familiaris. The note with it: in vivo.
Data set [15] concerns the target T2, Neuronal acetylcholine receptor subunit alpha-7. In words: Agonist activity at human alpha7 nAChR expressed in HEK293 cells co-expressing human RIC3 assessed as induction of peak current amplitutde at 10 uM at holding potential of -90 mV by whole-cell voltage clamp electrophysiology method relative to acetylcholine. It counts as cell-based.
The nature of data set [16]: Fraction unbound in dog plasma at 10 uM after 4 hrs by equilibrium dialysis method. It counts as ADME, cell-free, Canis lupus familiaris.
For data set [17], the species on record is Canis familiaris. As to the kind of experiment: […] in dog assessed as increase in AST level. The note with it: in vivo. It counts as toxicity, Canis lupus familiaris.
The target in data set [18] is Neuronal acetylcholine receptor; alpha4/beta2 (Rattus norvegicus) (UniProt P09483+P12390). As to the kind of experiment: Antagonist activity at rat alpha4beta2 nAChR expressed in HEK293 cells assessed as inhibition of acetylcholine-induced increase in Ca2+ flux by Fluo-4 AM dye based FLIPR assay. It counts as cell-based.
Data set [19] addresses T2, Neuronal acetylcholine receptor subunit alpha-7. In words: Agonist activity at human alpha7 nAChR expressed in HEK293 cells co-expressing human RIC3 assessed as area under current curve at holding potential of -90 mV by whole-cell voltage clamp electrophysiology method. It counts as cell-based.
The target in a further data set is CYP2C19 (Homo sapiens, UniProt P33261). As to the kind of experiment: Inhibition of recombinant human CYP2C19 using fluorogenic substrate preincubated for 30 mins and measured after 20 to 60 mins in presence of NADPH regenerating system by fluorescence assay. It counts as ADME. The note with it: recombinant CYP2C19, probe fluorogenic substrate (not named).
Chain of CYP2C19 (P33261 whole entry): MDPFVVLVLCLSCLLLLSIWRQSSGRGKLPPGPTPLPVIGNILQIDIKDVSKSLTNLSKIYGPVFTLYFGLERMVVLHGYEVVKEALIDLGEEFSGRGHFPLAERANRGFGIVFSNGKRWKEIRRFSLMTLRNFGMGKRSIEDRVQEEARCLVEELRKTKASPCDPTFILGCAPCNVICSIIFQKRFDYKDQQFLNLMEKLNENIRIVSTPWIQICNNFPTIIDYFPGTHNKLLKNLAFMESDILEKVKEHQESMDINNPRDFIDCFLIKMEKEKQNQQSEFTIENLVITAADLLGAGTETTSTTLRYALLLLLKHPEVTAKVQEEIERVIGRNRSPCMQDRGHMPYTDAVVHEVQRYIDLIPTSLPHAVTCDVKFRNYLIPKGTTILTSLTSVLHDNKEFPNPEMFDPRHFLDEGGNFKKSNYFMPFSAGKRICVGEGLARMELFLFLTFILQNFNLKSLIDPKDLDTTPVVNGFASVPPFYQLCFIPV
The target of data set [20] is Neuronal acetylcholine receptor; alpha3/beta4 (Rattus norvegicus) (UniProt P04757+P12392). As to the kind of experiment: Antagonist activity at rat alpha3beta4 nAChR expressed in HEK293 cells assessed as inhibition of acetylcholine-induced increase in Ca2+ flux by Fluo-4 AM dye based FLIPR assay. It counts as cell-based.
Data set [21] can be described thus: Fraction unbound in monkey plasma at 10 uM after 4 hrs by equilibrium dialysis method. It counts as ADME, cell-free, Macaca mulatta. The note with it: rhesus monkey.
Data set [22] is described as follows: Fraction unbound in rat plasma at 10 uM after 4 hrs by equilibrium dialysis method. It counts as ADME, cell-free.
For data set [23], the species on record is Canis familiaris. As to the kind of experiment: Cardiotoxicity in dog assessed as QT prolongation. It counts as toxicity, Canis lupus familiaris.
A further data set addresses CYP2C9 (Homo sapiens, UniProt P11712). In words: Inhibition of recombinant human CYP2C9 using fluorogenic substrate preincubated for 30 mins and measured after 20 to 60 mins in presence of NADPH regenerating system by fluorescence assay. It counts as ADME. The note with it: recombinant CYP2C9, probe fluorogenic substrate (not named).
Data set [24] is described as follows: Fraction unbound in mouse plasma at 10 uM after 4 hrs by equilibrium dialysis method. It counts as ADME, cell-free.
A short description of data set [25]: Metabolic stability in rat liver microsomes assessed as compound remaining at 3 uM after 10 mins by LC-MS/MS analysis. The note with it: read-out: Stability. It counts as ADME, microsome.
The target in the next data set is CYP1A2 (Homo sapiens, UniProt P05177). In words: Inhibition of recombinant human CYP1A2 using fluorogenic substrate preincubated for 30 mins and measured after 20 to 60 mins in presence of NADPH regenerating system by fluorescence assay. The note with it: recombinant CYP1A2, probe fluorogenic substrate (not named). It counts as ADME.
Chain of CYP1A2 (P05177 whole entry): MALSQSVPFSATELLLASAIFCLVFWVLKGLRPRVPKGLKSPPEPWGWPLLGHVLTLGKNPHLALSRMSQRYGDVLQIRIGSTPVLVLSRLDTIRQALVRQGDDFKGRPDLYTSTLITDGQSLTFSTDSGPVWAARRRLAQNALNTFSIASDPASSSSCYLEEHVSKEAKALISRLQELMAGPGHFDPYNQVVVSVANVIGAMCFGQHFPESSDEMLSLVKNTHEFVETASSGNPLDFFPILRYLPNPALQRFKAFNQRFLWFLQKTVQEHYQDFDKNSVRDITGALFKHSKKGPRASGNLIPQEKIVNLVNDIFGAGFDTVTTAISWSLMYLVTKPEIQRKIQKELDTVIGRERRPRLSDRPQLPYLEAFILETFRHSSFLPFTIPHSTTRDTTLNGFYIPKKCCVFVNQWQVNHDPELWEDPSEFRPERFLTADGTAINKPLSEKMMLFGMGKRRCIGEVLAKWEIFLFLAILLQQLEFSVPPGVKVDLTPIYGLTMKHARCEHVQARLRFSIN
Data set [26] in a line: Metabolic stability in dog liver microsomes assessed as compound remaining at 3 uM after 10 mins by LC-MS/MS analysis. It counts as ADME, Canis lupus familiaris, microsome. The note with it: read-out: Stability.
For data set [27], the target named is T2, Neuronal acetylcholine receptor subunit alpha-7. In words: Agonist activity at human alpha7 nAChR expressed in HEK293 cells co-expressing human RIC3 assessed as area under current curve at 10 uM at holding potential of -90 mV by whole-cell voltage clamp electrophysiology method relative to acetylcholine. It counts as cell-based.
The species named for data set [28] is Canis familiaris. In words: Hepatotoxicity in dog assessed as increase in ALT level. It counts as toxicity, Canis lupus familiaris. The note with it: in vivo.
A further data set addresses CYP2D6 (Homo sapiens, UniProt P10635). In words: Inhibition of recombinant human CYP2D6 using fluorogenic substrate preincubated for 30 mins and measured after 20 to 60 mins in presence of NADPH regenerating system by fluorescence assay. It counts as ADME. The note with it: human, recombinant CYP2D6, probe fluorogenic substrate (not named).
The next data set has as its target CYP2B6 (Homo sapiens, UniProt P20813). As to the kind of experiment: Inhibition of recombinant human CYP2B6 using fluorogenic substrate preincubated for 30 mins and measured after 20 to 60 mins in presence of NADPH regenerating system by fluorescence assay. It counts as ADME. The note with it: human, recombinant CYP2B6, probe fluorogenic substrate (not named).

Calls of active or inactive are those of the source. The calls are words filed in the database; no cut-off is given here. Where only a bound is given, the exact number is not on record here.

Chain of CYP2C9 (P11712 whole entry): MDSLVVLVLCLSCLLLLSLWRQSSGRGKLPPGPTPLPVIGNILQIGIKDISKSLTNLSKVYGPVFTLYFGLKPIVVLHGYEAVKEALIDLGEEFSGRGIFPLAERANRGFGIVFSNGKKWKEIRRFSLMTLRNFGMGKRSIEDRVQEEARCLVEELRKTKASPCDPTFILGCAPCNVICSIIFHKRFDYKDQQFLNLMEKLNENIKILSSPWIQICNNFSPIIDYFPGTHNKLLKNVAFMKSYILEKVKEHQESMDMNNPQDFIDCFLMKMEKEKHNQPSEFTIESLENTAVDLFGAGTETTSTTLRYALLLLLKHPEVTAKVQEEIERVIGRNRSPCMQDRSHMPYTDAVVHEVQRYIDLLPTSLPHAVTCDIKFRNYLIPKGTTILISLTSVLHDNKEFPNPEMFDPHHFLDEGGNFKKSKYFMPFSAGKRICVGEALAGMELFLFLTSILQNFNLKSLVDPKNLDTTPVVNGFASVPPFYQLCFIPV
Chain of CYP2D6 (P10635 whole entry): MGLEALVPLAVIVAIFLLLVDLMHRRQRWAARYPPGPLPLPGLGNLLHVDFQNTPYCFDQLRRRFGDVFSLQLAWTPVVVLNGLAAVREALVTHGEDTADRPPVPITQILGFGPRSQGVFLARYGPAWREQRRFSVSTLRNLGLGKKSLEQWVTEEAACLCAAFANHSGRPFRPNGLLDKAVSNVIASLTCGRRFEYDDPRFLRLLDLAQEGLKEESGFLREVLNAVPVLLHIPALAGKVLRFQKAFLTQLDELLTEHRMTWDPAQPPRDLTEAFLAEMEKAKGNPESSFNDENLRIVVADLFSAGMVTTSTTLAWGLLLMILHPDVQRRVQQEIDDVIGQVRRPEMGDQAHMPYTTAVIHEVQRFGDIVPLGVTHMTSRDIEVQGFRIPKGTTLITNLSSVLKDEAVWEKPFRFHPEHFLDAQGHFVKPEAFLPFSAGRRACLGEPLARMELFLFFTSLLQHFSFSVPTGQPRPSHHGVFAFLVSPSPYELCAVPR
Chain of CYP2B6 (P20813 whole entry): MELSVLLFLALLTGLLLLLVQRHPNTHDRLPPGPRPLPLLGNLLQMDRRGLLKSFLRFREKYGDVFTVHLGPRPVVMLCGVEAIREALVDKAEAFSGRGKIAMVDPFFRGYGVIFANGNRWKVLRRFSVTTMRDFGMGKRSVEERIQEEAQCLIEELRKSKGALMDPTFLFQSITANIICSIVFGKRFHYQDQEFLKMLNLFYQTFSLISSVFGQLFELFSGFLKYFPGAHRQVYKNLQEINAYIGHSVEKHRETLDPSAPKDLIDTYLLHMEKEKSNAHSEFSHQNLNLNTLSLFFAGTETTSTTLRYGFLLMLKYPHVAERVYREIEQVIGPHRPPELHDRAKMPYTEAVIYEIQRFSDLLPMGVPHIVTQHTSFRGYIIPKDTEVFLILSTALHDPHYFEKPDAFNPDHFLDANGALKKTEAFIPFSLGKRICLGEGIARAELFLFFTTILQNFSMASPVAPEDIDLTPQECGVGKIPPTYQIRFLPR

As to `[O-][N+]12CCC(CC1)C1(CN=C(Nc3cc(-n4ccnc4)ncn3)O1)C2` (single isomer, unassigned), in data set [1], the Drug metabolism entry was “Metabolite detected”. In [2], the 50% effective concentration (EC50) was > 50 µM.
Consider `c1ccc2cc(NC3=NC[C@@]4(CN5CCC4CC5)O3)ncc2c1`, for which the remaining at 10 min, 3 µM in data set [3] turned out to be 96%; in data set [5] it was 78%; in data set [9] it was 89%; in data set [25], 1%; in [26], 74%. In addition, the IC50 at CYP2C8, at CYP3A4 [6], at CYP3A4 [12], at CYP2C19, at CYP2C9 and at CYP1A2 was > 40 µM throughout. The IC50 at CYP2D6 and at CYP2B6 was > 40 µM each time. Also, the Activity entry in the data set filed under Canis familiaris [4], in the data set listed under Canis familiaris [8], in the data set listed under Canis familiaris [11], in the data set listed under Canis familiaris [14], in the data set listed under Canis familiaris [17] and in the data set filed under Canis familiaris [23] was “Toxic” each time. For the same molecule, in the data set listed under Canis familiaris [28], the Activity result is “Toxic”. The fraction unbound at 4 h, 10 µM in [7] was found to be 0.25; in data set [16], 0.44; in data set [21], 0.35; in data set [22] it was 0.27; in [24], 0.23. The inhibition entry in [10], in data set [18] and in data set [20] was “inactive” in each case. Also, in [13], the affinity, expressed as Ki, was 0.0013 µM. In addition, the %max worked out at 26% in [15] and 62% in data set [27]. The EC50 in [19] is 0.24 µM.
